ChEMBL document CHEMBL1127964, “N-linked analogs of retinoid O-glucuronides: potential cancer chemopreventive/chemotherapeutic agents” (Bioorg Med Chem Lett, 1994)

Experiments:
[1] = target: T1, Retinoic acid receptor gamma (Homo sapiens, UniProt P13631); assay: Inhibition of [3H]RA to binding Retinoic acid receptor RAR gamma
T1 sequence (P13631 whole entry): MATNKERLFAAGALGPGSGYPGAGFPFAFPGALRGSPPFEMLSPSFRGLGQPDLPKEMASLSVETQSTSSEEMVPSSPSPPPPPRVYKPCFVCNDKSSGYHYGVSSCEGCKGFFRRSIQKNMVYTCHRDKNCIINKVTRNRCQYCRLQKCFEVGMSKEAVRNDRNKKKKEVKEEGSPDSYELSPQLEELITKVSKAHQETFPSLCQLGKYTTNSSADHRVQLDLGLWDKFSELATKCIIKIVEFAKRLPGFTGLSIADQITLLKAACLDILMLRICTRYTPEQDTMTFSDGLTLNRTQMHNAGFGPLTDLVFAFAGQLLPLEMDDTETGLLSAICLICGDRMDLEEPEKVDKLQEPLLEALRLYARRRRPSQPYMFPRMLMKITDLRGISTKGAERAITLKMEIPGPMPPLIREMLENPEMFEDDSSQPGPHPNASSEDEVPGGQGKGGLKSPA

Rattus norvegicus = species on record: Rattus norvegicus; assay: Antitumor activity against DMBA-induced mammary tumors in rats; assay type: functional
[2] = target: T1, Retinoic acid receptor gamma; assay: Inhibition of [3H]RA binding to Retinoic acid receptor RAR gamma

Ki [1] | Ki [2] | SMILES | Tumor (Rattus norvegicus) | Tumor incidence (Rattus norvegicus) | Tumor latency (Rattus norvegicus)
710 nM |  | CC1=C(/C=C/C(C)=C/C=C/C(C)=C/C(=O)NC2OC(CO)C(O)C(O)C2O)C(C)(C)CCC1 (stereo unspecified) | 0.92 number | 58% | 64 days
 |  | CC1=C(/C=C/C(C)=C/C=C/C(C)=C/C(=O)O)C(C)(C)CCC1 [TRETINOIN] | 1.17 number | 83% | 49 days
 | 280 nM | CC1=C(/C=C/C(C)=C/C=C/C(C)=C/C(=O)NC2OC(C(=O)O)C(O)C(O)C2O)C(C)(C)CCC1 (stereo unspecified) | 0.83 number | 50% | 64 days
